Measurements taken from EPA's ToxValDB 9.5 (doi:10.2903/j.efsa.2011.1962).

Experiments:
[1] = test system: Canidae; conditions: subchronic; duration: 90 days; oral; Dog Other; histopathology: nonneoplastic
[2] = test system: Daphnia magna; conditions: chronic/long-term; duration: 21 days; reproduction
[3] = test system: Lepomis macrochirus; conditions: chronic/long-term; duration: 28 days; body weight
[4] = test system: Oryctolagus sp.; conditions: developmental; development
[5] = test system: Rattus norvegicus
[6] = test system: Tagia sp.; conditions: acute; duration: 14 days; mortality
[7] = test system: Typhlodromus pyri; experiment: LR50; higher = less toxic; conditions: not reported; mortality

Q: `CC(C)C(O)(c1ccc(OC(F)(F)F)cc1)c1cncnc1` (stereo unspecified) [Flurprimidol] was tested. Which NOAEL [1] did it give?
A: 1.5 mg/kg-day

Q: What about the NOEC [2] of the same compound?
A: 1.7 mg/L

Q: What about the NOEC [3] of the same compound?
A: 0.42 mg/L

Q: What about the NOAEL [4] of the same compound?
A: 9 mg/kg-day

Q: What about the LOAEL ([5]; chronic, duration: 2 years, organ weight) of the same compound?
A: 1 mg/kg-day

Q: What about the NOAEL ([5]; developmental, development) of the same compound?
A: 10 mg/kg-day

Q: And the NOAEL ([5]; reproduction developmental, reproduction)?
A: 1.8 mg/kg-day

Q: And the NOEL ([5]; short-term, oral, diet, body weight)?
A: 1.62 mg/kg-day

Q: And the NOAEL ([5]; subchronic, duration: 90 days, oral, organ weight)?
A: 1.96 mg/kg-day

Q: What about the NOEC [6] of the same compound?
A: 62.6 mg/kg

Q: And the LR50 [7]?
A: > 29.6 g/ha
